Assay results as given in US6664372B1, “Azatide peptidomimetics” (The Scripps Research Institute, priority 1996, dated 2003).
Starred links: 1 amine or outer side, 2 acyl side, 3 side chain; linkers in the order of their positions; H or OH if unused. Non-standard residues stand in square brackets, D forms with d. No end group written: not given here. azaTyr = O=C(N(Cc1ccc(O)cc1)N[*:1])[*:2]; azaPhe = O=C(N(Cc1ccccc1)N[*:1])[*:2]; azaLeu = CC(C)CN(N[*:1])C(=O)[*:2]; azaGly = NNC(=O)O

System: anti-β-endorphin monoclonal antibody 3-E7 (IgG 3-E7)
Assay: Azatide (16) competition ELISA for anti-β-endorphin monoclonal antibody
Type: binding, mouse
Conditions: at 1 mM, plate coated with Tyr-Gly-Gly-Phe-Leu-BSA conjugate

## Tyr^a-Gly^a-Gly^a-Phe^a-Leu^a.2CP3COOH ([azaTyr][azaGly][azaGly][azaPhe][azaLeu]; also: salt/adduct .2CP3COOH) [compound 16, Leu-enkephalin azatide mimetic; every α-carbon replaced by nitrogen]
  competition with the natural peptide for 3-E7 (competition ELISA): non-ligand
Listed as azatide pentamer
  competition with the natural peptide for 3-E7 (competition ELISA): no propensity to compete
